Biological target: recombinant human ASK1 kinase (Homo sapiens (Human), UniProt Q99683)
Experiment: TR-FRET ASK1 (Apoptosis Signal-Regulating Kinase 1) kinase assay
Assay type: biochemical
Conditions: 4 nM ASK1, 1 μM STK3 peptide substrate, 100 μM ATP, HTRF detection; average of quadruplicate determination; read-out: IC50 (nM), activities of the compounds of Formula (I) to ASK1
From the text: I. TR-FRET ASK1 (Apoptosis Signal-Regulating Kinase 1) Kinase Assay
To evaluate the inhibitory activity of compounds of the invention against ASK1 (Apoptosis Signal-regulating Kinase 1) kinase, its activity was examined using a TR-FRET ASK1 kinase assay which determined the amount of phosphate transferred to a peptide substrate from ATP.
Dephosphorylated recombinant human ASK1 kinase was from Gilead Sciences. Small molecule kinase inhibitor staurosporine (Catalogue #S6942) and dithiothreitol (DTT, catalogue #43815-5G) were obtained from Sigma Chemicals (St. Louis, Mo.). ATP (catalogue #7724) was from Affymetrix (Santa Clara, Calif.) and test compounds were from Gilead Sciences. HTRF KinEASE™-STK S3 kit was obtained from Cisbio (Bedford, Mass.). All other reagents were of the highest grade commercially available.
The assay measures the phosphorylation level of a biotinylated peptide substrate by the ASK1 kinase using HTRF detection. This is a competitive, time-resolved fluorescence resonance energy transfer (TR-FRET) immunoassay, based on HTRF® KinEASE™-STK manual from Cisbio. Test compound, 1 μM STK3 peptide substrate, 4 nM of ASK1 kinase were incubated with 10 mM MOP buffer, pH. 7.0 containing 10 mM Mg-acetate, 0.025% NP-40, 1 mM DTT, 0.05% BSA and 1.5% glycerol for 30 minutes then 100 μM ATP was added to start the kinase reaction and incubated for 3 hr. Peptide antibody labeled with 1× Eu^3+ Cryptate buffer containing 10 mM EDTA and 125 nM Streptavidin XL665 were added to stop the reaction and phosphorylated peptide substrate was detected using Envision 2103 Multilabeled reader from PerkinElmer. The fluorescence was measured at 615 nm (Cryptate) and 665 nm (XL665) and a ratio of 665 nm/615 nm was calculated for each well. The resulting TR-FRET level (a ratio of 665 nm/615 nm) was proportional to the phosphorylation level. Under these assay conditions, the degree of phosphorylation of peptide substrate was linear with time and concentration for the enzyme. The assay system yielded consistent results with regard to Km and specific activities for the enzyme. For inhibition experiments (IC50 values), activities were performed with constant concentrations of ATP, peptide and several fixed concentrations of inhibitors. Staurosporine, the nonselective kinase inhibitor, was used as the positive control. All enzyme activity data are reported as an average of quadruplicate determination.
The IC50 values were calculated following equation: y=Range/{1+(x/IC50)^s}+Background where x and y represent the concentration of inhibitors and enzyme activity, respectively. Enzyme activity is expressed as the amount of Phosphate incorporated into substrate peptide from ATP. Range is the maximum y range (no inhibitor, DMSO control) and s is a slope factor.

recombinant human ASK1 kinase, sequence (Q99683 whole entry): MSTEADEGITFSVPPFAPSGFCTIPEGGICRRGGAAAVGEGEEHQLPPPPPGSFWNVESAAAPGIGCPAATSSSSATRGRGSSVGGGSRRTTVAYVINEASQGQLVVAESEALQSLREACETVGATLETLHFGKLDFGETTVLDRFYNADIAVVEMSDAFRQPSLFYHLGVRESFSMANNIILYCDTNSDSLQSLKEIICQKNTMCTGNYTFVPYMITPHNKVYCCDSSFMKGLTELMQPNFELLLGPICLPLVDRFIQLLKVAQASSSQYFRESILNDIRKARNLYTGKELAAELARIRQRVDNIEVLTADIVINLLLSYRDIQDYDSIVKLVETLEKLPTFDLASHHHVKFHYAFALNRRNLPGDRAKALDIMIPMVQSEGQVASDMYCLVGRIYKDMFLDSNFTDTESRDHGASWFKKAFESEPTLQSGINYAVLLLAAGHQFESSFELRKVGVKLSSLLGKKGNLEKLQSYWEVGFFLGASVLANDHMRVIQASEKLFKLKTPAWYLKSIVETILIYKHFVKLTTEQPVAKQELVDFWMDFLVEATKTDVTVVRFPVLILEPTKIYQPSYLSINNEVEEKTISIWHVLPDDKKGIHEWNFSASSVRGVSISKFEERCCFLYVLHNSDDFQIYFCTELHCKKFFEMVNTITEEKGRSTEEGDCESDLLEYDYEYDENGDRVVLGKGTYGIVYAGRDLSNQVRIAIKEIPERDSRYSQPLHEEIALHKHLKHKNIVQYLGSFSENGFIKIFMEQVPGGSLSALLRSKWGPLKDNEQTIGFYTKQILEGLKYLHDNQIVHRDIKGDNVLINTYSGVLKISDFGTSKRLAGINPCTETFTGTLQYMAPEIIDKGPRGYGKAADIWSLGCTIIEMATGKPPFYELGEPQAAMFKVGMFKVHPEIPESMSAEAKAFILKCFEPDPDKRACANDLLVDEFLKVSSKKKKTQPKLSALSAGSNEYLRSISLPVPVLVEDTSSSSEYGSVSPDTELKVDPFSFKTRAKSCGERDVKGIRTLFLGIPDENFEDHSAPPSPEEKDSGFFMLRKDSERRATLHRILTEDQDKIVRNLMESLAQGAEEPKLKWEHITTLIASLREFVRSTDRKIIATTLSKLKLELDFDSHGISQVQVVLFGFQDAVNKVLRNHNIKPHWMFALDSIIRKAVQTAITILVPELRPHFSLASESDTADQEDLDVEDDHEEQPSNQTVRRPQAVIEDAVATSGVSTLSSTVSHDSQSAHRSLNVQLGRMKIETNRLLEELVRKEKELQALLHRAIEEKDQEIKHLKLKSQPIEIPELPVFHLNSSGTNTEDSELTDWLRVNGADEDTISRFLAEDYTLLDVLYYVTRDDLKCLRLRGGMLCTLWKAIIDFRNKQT

Row | Compound | IC50
1 | O=C(Nc1csc(-c2nncn2C2CC2)n1)c1cc(-n2cnc(C3CC3)c2)c(N2CCN3CCCC3C2)cn1 (stereo not shown) [Compound 15, 5-(3,4,6,7,8,8a-hexahydro-1H-pyrrolo[1,2-a]pyrazin-2-yl)-4-(4-cyclopropylimidazol-1-yl)-N-[2-(4-cyclopropyl-1,2,4-triazol-3-yl)-1,3-thiazol-4-yl]pyridine-2-carboxamide] | 2.7 nM
2 | C[C@H](n1cnnc1-c1nc(NC(=O)c2cc(-n3cnc(C4CC4)c3)c(N3CC(C)(C#N)C3)cn2)cs1)C(F)(F)F [Compound 24, (S)-5-(3-cyano-3-methylazetidin-1-yl)-4-(4-cyclopropyl-1H-imidazol-1-yl)-N-(2-(4-(1,1,1-trifluoropropan-2-yl)-4H-1,2,4-triazol-3-yl)thiazol-4-yl)picolinamide] | 1.4 nM
3 | COC1CCN(c2cnc(C(=O)Nc3csc(-c4nncn4[C@@H](C)C(F)(F)F)n3)cc2-n2cnc(C3CC3)c2)C1 (stereo partly drawn) [Compound 28, 4-(4-cyclopropyl-1H-imidazol-1-yl)-5-(3-methoxypyrrolidin-1-yl)-N-(2-(4-((S)-1,1,1-trifluoropropan-2-yl)-4H-1,2,4-triazol-3-yl)thiazol-4-yl)picolinamide] | 1.9 nM
4 | C[C@H](n1cnnc1-c1nc(NC(=O)c2cc(-n3cnc(C4CC4)c3)c(N3CCN(CC(F)(F)F)CC3)cn2)cs1)C(F)(F)F [Compound 33, (S)-4-(4-cyclopropyl-1H-imidazol-1-yl)-5-(4-(2,2,2-trifluoroethyl)piperazin-1-yl)-N-(2-(4-(1,1,1-trifluoropropan-2-yl)-4H-1,2,4-triazol-3-yl)thiazol-4-yl)picolinamide] | 1.2 nM
